Square brackets hold non-standard residues; d marks the D form. Peptide text beside a SMILES is read from it. AEEA = NCCOCCOCC(=O)O
Experiments:
[1] = tested on: HSV-1; assay: Virus inhibition (replication) assay in Vero E6 and TIGKs cells, qPCR, titration, gB Western blot; type: cell-based, herpes simplex virus type 1; settings: 48 h p.i.
Experimental: HSV-1 stocks were generated by infecting Vero E6 cells. Cells were lysed at 48 h p.i. by two freeze-thaw cycles. The virus containing fluid was aliquoted and stored at −80°C. A control Vero E6 cell lysate from mock-infected cells was prepared in the same manner as the virus stock. Virus yield was assessed by virus titration on fully confluent Vero E6 cells in 96-well plates, according to the method of Reed & Muench ([32]). Plates were incubated at 37°C for 48 h and the occurrence of a cytopathic effect was scored using an inverted microscope, and TCID50 (50% tissue culture infection dose) was calculated.
Vero E6 or TIGKs cells were seeded in 12-well plates and cultured for 48 h. […] After 30 min of incubation at 37°C, cells were infected with HSV-1 at TCID50 400 /ml or treated with mock. After 2 h of infection at 37°C, unbound viral particles were removed by washing with PBS, and culture media supplemented with peptide conjugates were applied. Following 48 h of incubation, media were collected, and the quantity of HSV-1 DNA copies was assessed using titration and qPCR.
(§1) Viral DNA was isolated from the conditioned media or the apical washes of inserts (OTG model) using Viral DNA/RNA Isolation Kit (A&A Biotechnology). The virus yield assessed by quantitative real-time PCR (qPCR). The reaction was carried out in a CFX96 Touch Real-Time PCR Detection System (Bio-Rad), in a 10 μl reaction mixture consisting of TaqMan^TM Fast Advanced Master Mix, TaqMan^TM Microbe Detection assay against HSV-1 (Vi04230116_s1) and 1 μl of viral DNA. The temperature profile was 10 s at 95°C, followed by 40 cycles of 3 s at 95°C and 20 s at 60°C. DNA quantification standards were prepared. In summary, a fragment of viral DNA was amplified using the primers listed above and cloned into the pTZ57R/T plasmid using the InsTAclone PCR cloning kit. The plasmid was propagated in E. coli, purified with the GeneJet Plasmid Miniprep Kit, and digested with the EcoR1 restriction enzyme. The number of copies per mL was estimated after the concentration of linearized DNA was assessed spectrophotometrically.
Protein extracts were prepared using lysis buffer (0.25% Na-deoxycholate, 0.5% Nonidet P-40, 0.05% SDS, protease inhibitor mixture, 2.5 mM EDTA in PBS), and the protein concentration was assessed using Pierce BCA (Thermo Fisher) protein assay kit. Equal amounts of cell extracts were separated on 10% SDS-PAGE gel and electrotransferred onto polyvinylidene difluoride membranes for gB and β-actin in transfer buffer (25 mM Tris, 0.2 M glycine, and 20% ethanol) for 90 min at 100 V. Nonspecific binding sites were blocked for 90 min in 5% skimmed milk prepared in TBST buffer (20 mM Tris, pH 7.5, 0.5 M NaCl, 0.05% Tween 20). Membranes were further incubated overnight at 4°C with primary antibodies: mouse anti-HSV-1 + HSV-2 gB (1:5000; abcam) and mouse anti-β-actin (1:4,000; BD Biosciences). The following day, membranes were washed three times with TBST buffer and incubated with HRP-conjugated secondary antibodies for 60 min at 37°C: goat anti-mouse IgG (1:20,000; β-actin; BD Bioscience) or sheep anti-mouse IgG (1:50,000; gB; Sigma Aldrich). Next, blots were washed five times for 5 min in TBST buffer, developed using Luminata Cresecendo Substarte (Merck) and exposed to AGFA medical x-ray film. Densitometry analysis was performed using ImageJ 1.52q software.

[2] = tested on: HSV-1; assay: Virion integrity assay; type: cell-based, herpes simplex virus type 1; settings: virions pre-treated 1 h at RT with 15 μg/ml, then TIGKs infected; qPCR up to 48 h p.i.; compared to Triton X-100
Experimental: HSV-1 samples were incubated with DAL-PEG-LK6 and CPP1-PEG-LK6 (15 μg/ml) for 1 h at room temperature on a shaker. Additionally, Triton X-100 was used as a positive control. Next, the mixtures were diluted to decrease tested molecules concentrations (0.65 ng/ml) and were used to infect TIGKs monolayers. After 48 h of incubation, supernatants were collected, and the quantity of HSV-1 DNA copies was determined using qPCR.
as §1, with “The plasmid was propagated in E. coli, purified with the GeneJet Plasmid Miniprep Kit, and digested with the EcoR1 restriction enzyme.” left out

[3] = Azure A metachromatic assay; type: binding; settings: HS 0.2 mg/ml, Azure A 23 μg/ml, peptide 1–300 μg/ml, 15 min at RT
Experimental: The possible interaction of peptide conjugate with HS was investigated by incubation the mixtures containing a constant concentration of HS (0.2 mg/ml, Sigma Aldrich) and solutions of CPP1-PEG-LK6 at different concentrations (1–300 μg/ml). Next, the mixtures were shaken for 15 min at room temperature. […] Azure A, a cationic dye when binding to heparin and/or HS changes its adsorption spectrum ([35]).

[4] = Confocal colocalization of CFS-labelled conjugate with HS on TIGKs cells; type: cell-based; settings: CFS-labelled conjugate 15 μg/ml, 30 min at 4°C, average ± SEM
Experimental: To examine the colocalization of HS on the cell surface with tested peptide conjugate we treated TIGKs cells with CFS stained CPP1-PEG-LK6 (15 μg/ml) for 30 min at 4°C. Then cells were washed with cold PBS and fixed with 3.7% formaldehyde for 30 min. Afterwards, TIGKs cells were stained with primary antibodies (1:100; rat anti-HS, Abcam) for 2 h at room temperature. The cells were then incubated with secondary antibodies (1:1,000; goat anti-rat conjugated with Alexa Fluor 568, Cell Signaling) and with Alexa Fluor 633 Phalloidin. Next, the coverslips were placed on glass slide with ProLong Antifade Mounting Medium with DAPI and visualized using a confocal laser scanning microscope (LSM 880; Zeiss).

CC[C@H](C)[C@H](NC(=O)COCCOCCNC(=O)[C@@H](NC(=O)[C@H](CC(C)C)NC(=O)[C@H](Cc1ccc(O)cc1)NC(=O)[C@@H](NC(=O)[C@H](Cc1ccccc1)NC(=O)[C@@H]1CCCN1)C(C)C)[C@@H](C)CC)C(=O)N[C@@H](CCCCN)C(=O)N[C@@H](CCCCN)C(=O)N[C@H](C(=O)N[C@@H](CC(C)C)C(=O)N[C@@H](CO)C(=O)N[C@@H](CCCCN)C(=O)N[C@H](C(=O)N[C@@H](CCCCN)C(=O)N[C@@H](CCCCN)C(=O)N[C@@H](CC(C)C)C(=O)N[C@@H](CC(C)C)C(=O)N[C@@H](CCCCN)C(N)=O)[C@@H](C)CC)[C@@H](C)CC [CPP1-PEG-LK6] (H-PFVYLI[AEEA]IKKILSKIKKLLK-NH2)
expression level of gB (Western blot) ([1]; 15 μg/ml before, during and after infection, normalized to β-actin, cell line not stated): significantly suppressed the expression level of gB
reduction in viral yield in the qPCR test ([1]; Figure 1C, Vero E6 (DAL-PEG-LK6 and CPP1-PEG-LK6 25 μg/ml; CPP2-PEG-LK6 10 μg/ml) and TIGKs cells (15 μg/ml)): 3 log
reduction of virus replication in titration assay ([1]; Figure 1D, both cell models (Vero E6, TIGKs), normalized to untreated control): over 99%
effect on HSV-1 virion integrity [2]: no inhibitory effect
interaction with heparan sulfate (Azure A release, absorbance at 630 nm) [3]: releases Azure A from HS
colocalization with HS, Manders overlap coefficient [4]: 0.93 ± 0.01
colocalization with HS, Pearson's correlation [4]: 0.82 ± 0.02
